From the supplement of paper PMC10627819

Columns and labels:
B. subtilis 168 [1] = assay: fitness (endpoint OD595 vs no drug) (fraction); higher = more growth
Procedure, shortened: (§1)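 Growth medium was TSB, LB Lennox or CY, and plates were kept at 37 °C. Inoculation was at OD595 0.01 in 384-well plates, at 30 µl per well or 55 µl for S. pneumoniae. OD595 was monitored every 30 min for 14 h and background-subtracted using the first reading. Fitness is the optical density on entering stationary phase divided by the robust mean of no-drug controls, with values capped at 1.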

S. aureus DSM 20231 [2] = assay: as above
Procedure, shortened: as §1

S. pneumoniae D39V [3] = assay: as above
Procedure, shortened: as §1

B. subtilis 168 [4] = assay: Bliss interaction score (quartile over a dose matrix) (fitness difference); higher = more antagonism (negative = synergy)
Procedure, shortened: (§2)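 Each OD595 reading at entry into stationary phase was scaled to the robust mean of the untreated wells on its plate, with a ceiling of 1. These ratios define fitness, and single-drug fitness was inferred from combinations. The Bliss score compares observed fitness with the product-based expectation and is reported as quartiles across all replicate types, technical, biological and donor/recipient.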

S. aureus DSM 20231 [5] = assay: as above
Procedure, shortened: as §2

S. aureus Newman = assay: as above
Procedure, shortened: as §2

S. pneumoniae D39V [6] = assay: as above
Procedure, shortened: as §2
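Wherever Bliss interaction score (quartile over a dose matrix) is given: first quartile when negative (synergy) and third quartile when positive (antagonism).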
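Wherever fitness (endpoint OD595 vs no drug) is given: OD595 on entry to stationary phase over no-drug wells; at most 1.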

CCC[C@@H]1C[C@@H](C(=O)N[C@@H]([C@H]2O[C@H](SC)[C@H](O)[C@@H](O)[C@H]2O)[C@@H](C)O)N(C)C1 [Lincomycin] + COc1c(N2C[C@@H]3CCCN[C@@H]3C2)c(F)cc2c(=O)c(C(=O)O)cn(C3CC3)c12 [Moxifloxacin]
fitness, one replicate
Details | first compound 0.1 µg/mL | first compound 0.2 µg/mL | first compound 0.4 µg/mL
B. subtilis 168 [1], partner 0.0312 µg/mL | 0.0564 | 0.039 | –
B. subtilis 168 [1], partner 0.0625 µg/mL | 0.0916 | 0.06 | –
B. subtilis 168 [1], partner 0.125 µg/mL | 0.0846 | 0.0751 | –
S. aureus DSM 20231 [2], partner 0.06 µg/mL | 0.661 | 0.677 | 0.562
S. aureus DSM 20231 [2], partner 0.12 µg/mL | 0.498 | 0.527 | 0.448

Details | fitness
B. subtilis 168 [1], first compound 0.1 µg/mL, partner 2 µg/mL | 0.0333
B. subtilis 168 [1], first compound 0.1 µg/mL, partner 4 µg/mL | 0.0228
B. subtilis 168 [1], first compound 0.1 µg/mL, partner 8 µg/mL | 0.0229
B. subtilis 168 [1], first compound 0.2 µg/mL, partner 2 µg/mL | 0.0297
B. subtilis 168 [1], first compound 0.2 µg/mL, partner 4 µg/mL | 0.0322
B. subtilis 168 [1], first compound 0.2 µg/mL, partner 8 µg/mL | 0.0239
B. subtilis 168 [1], first compound 0.4 µg/mL, partner 0.0312 µg/mL | 0.0344
B. subtilis 168 [1], first compound 0.4 µg/mL, partner 0.0625 µg/mL | 0.036
B. subtilis 168 [1], first compound 0.4 µg/mL, partner 0.125 µg/mL | 0.0478
B. subtilis 168 [1], first compound 0.4 µg/mL, partner 2 µg/mL | 0.0261
B. subtilis 168 [1], first compound 0.4 µg/mL, partner 4 µg/mL | 0.0257
B. subtilis 168 [1], first compound 0.4 µg/mL, partner 8 µg/mL | 0.0306
B. subtilis 168 [1], first compound 0.8 µg/mL, partner 0.0312 µg/mL | 0.0429
B. subtilis 168 [1], first compound 0.8 µg/mL, partner 0.0625 µg/mL | 0.049
B. subtilis 168 [1], first compound 0.8 µg/mL, partner 0.125 µg/mL | 0.0451
B. subtilis 168 [1], first compound 1.6 µg/mL, partner 0.0312 µg/mL | 0.0535
B. subtilis 168 [1], first compound 1.6 µg/mL, partner 0.0625 µg/mL | 0.0507
B. subtilis 168 [1], first compound 1.6 µg/mL, partner 0.125 µg/mL | 0.0559
S. aureus DSM 20231 [2], first compound 0.1 µg/mL, partner 0.0075 µg/mL | 0.823
S. aureus DSM 20231 [2], first compound 0.1 µg/mL, partner 0.015 µg/mL | 0.765
S. aureus DSM 20231 [2], first compound 0.1 µg/mL, partner 0.03 µg/mL | 0.671
S. aureus DSM 20231 [2], first compound 0.2 µg/mL, partner 0.0075 µg/mL | 0.737
S. aureus DSM 20231 [2], first compound 0.2 µg/mL, partner 0.015 µg/mL | 0.715
S. aureus DSM 20231 [2], first compound 0.2 µg/mL, partner 0.03 µg/mL | 0.689
S. aureus DSM 20231 [2], first compound 0.4 µg/mL, partner 0.0075 µg/mL | 0.301
S. aureus DSM 20231 [2], first compound 0.4 µg/mL, partner 0.015 µg/mL | 0.278
S. aureus DSM 20231 [2], first compound 0.4 µg/mL, partner 0.03 µg/mL | 0.359
S. pneumoniae D39V [3], first compound 0.2 µg/mL, partner 0.005 µg/mL | 0.749
S. pneumoniae D39V [3], first compound 0.2 µg/mL, partner 0.01 µg/mL | 0.829
S. pneumoniae D39V [3], first compound 0.2 µg/mL, partner 0.02 µg/mL | 0.757
S. pneumoniae D39V [3], first compound 0.215 µg/mL, partner 0.0037 µg/mL | 0.742
S. pneumoniae D39V [3], first compound 0.215 µg/mL, partner 0.0075 µg/mL | 0.769
S. pneumoniae D39V [3], first compound 0.215 µg/mL, partner 0.015 µg/mL | 0.751
S. pneumoniae D39V [3], first compound 0.4 µg/mL, partner 0.005 µg/mL | 0.675
S. pneumoniae D39V [3], first compound 0.4 µg/mL, partner 0.01 µg/mL | 0.704
S. pneumoniae D39V [3], first compound 0.4 µg/mL, partner 0.02 µg/mL | 0.653
S. pneumoniae D39V [3], first compound 0.43 µg/mL, partner 0.0037 µg/mL | 0.629
S. pneumoniae D39V [3], first compound 0.43 µg/mL, partner 0.0075 µg/mL | 0.651
S. pneumoniae D39V [3], first compound 0.43 µg/mL, partner 0.015 µg/mL | 0.677
S. pneumoniae D39V [3], first compound 0.86 µg/mL, partner 0.0037 µg/mL | 0.34
S. pneumoniae D39V [3], first compound 0.86 µg/mL, partner 0.0075 µg/mL | 0.339
S. pneumoniae D39V [3], first compound 0.86 µg/mL, partner 0.015 µg/mL | 0.297

Details | Bliss interaction score
B. subtilis 168 [4] | -0.0143
S. aureus DSM 20231 [5] | 0.124
S. aureus Newman | 0.0565
S. pneumoniae D39V [6] | 0.0862

CCC[C@@H]1C[C@@H](C(=O)N[C@@H]([C@H]2O[C@H](SC)[C@H](O)[C@@H](O)[C@H]2O)[C@H](C)Cl)N(C)C1 [Clindamycin] + CCC[C@@H]1C[C@@H](C(=O)N[C@@H]([C@H]2O[C@H](SC)[C@H](O)[C@@H](O)[C@H]2O)[C@@H](C)O)N(C)C1 [Lincomycin]
fitness, B. subtilis 168 [1], one replicate
Details | first compound 0.0039 µg/mL | first compound 0.0078 µg/mL | first compound 0.0156 µg/mL
partner 0.4 µg/mL | 0.964 | 0.838 | 0.828
partner 0.8 µg/mL | 0.965 | 0.803 | 0.83
partner 1.6 µg/mL | 0.94 | 0.817 | 0.81

Details | fitness
B. subtilis 168 [1], first compound 0.0625 µg/mL, partner 0.1 µg/mL | 0.659
B. subtilis 168 [1], first compound 0.0625 µg/mL, partner 0.2 µg/mL | 0.613
B. subtilis 168 [1], first compound 0.0625 µg/mL, partner 0.4 µg/mL | 0.675
B. subtilis 168 [1], first compound 0.125 µg/mL, partner 0.1 µg/mL | 0.454
B. subtilis 168 [1], first compound 0.125 µg/mL, partner 0.2 µg/mL | 0.406
B. subtilis 168 [1], first compound 0.25 µg/mL, partner 0.1 µg/mL | 0.363
B. subtilis 168 [1], first compound 0.25 µg/mL, partner 0.2 µg/mL | 0.355
B. subtilis 168 [1], first compound 0.25 µg/mL, partner 0.4 µg/mL | 0.356
S. aureus DSM 20231 [2], first compound 0.0312 µg/mL, partner 0.2 µg/mL | 0.265
S. aureus DSM 20231 [2], first compound 0.0312 µg/mL, partner 0.4 µg/mL | 0.137
S. aureus DSM 20231 [2], first compound 0.0625 µg/mL, partner 0.1 µg/mL | 0.16
S. aureus DSM 20231 [2], first compound 0.0625 µg/mL, partner 0.2 µg/mL | 0.112
S. aureus DSM 20231 [2], first compound 0.0625 µg/mL, partner 0.4 µg/mL | 0.083
S. aureus DSM 20231 [2], first compound 0.125 µg/mL, partner 0.1 µg/mL | 0.0376
S. aureus DSM 20231 [2], first compound 0.125 µg/mL, partner 0.2 µg/mL | 0.0455
S. aureus DSM 20231 [2], first compound 0.125 µg/mL, partner 0.4 µg/mL | 0.0541
S. pneumoniae D39V [3], first compound 0.0125 µg/mL, partner 0.2 µg/mL | 0.496
S. pneumoniae D39V [3], first compound 0.0125 µg/mL, partner 0.4 µg/mL | 0.351
S. pneumoniae D39V [3], first compound 0.0125 µg/mL, partner 0.8 µg/mL | 0.0708
S. pneumoniae D39V [3], first compound 0.015 µg/mL, partner 0.215 µg/mL | 0.831
S. pneumoniae D39V [3], first compound 0.015 µg/mL, partner 0.43 µg/mL | 0.741
S. pneumoniae D39V [3], first compound 0.015 µg/mL, partner 0.86 µg/mL | 0.482
S. pneumoniae D39V [3], first compound 0.025 µg/mL, partner 0.2 µg/mL | 0.356
S. pneumoniae D39V [3], first compound 0.025 µg/mL, partner 0.4 µg/mL | 0.243
S. pneumoniae D39V [3], first compound 0.025 µg/mL, partner 0.8 µg/mL | 0.0559
S. pneumoniae D39V [3], first compound 0.03 µg/mL, partner 0.215 µg/mL | 0.772
S. pneumoniae D39V [3], first compound 0.03 µg/mL, partner 0.43 µg/mL | 0.739
S. pneumoniae D39V [3], first compound 0.03 µg/mL, partner 0.86 µg/mL | 0.394
S. pneumoniae D39V [3], first compound 0.05 µg/mL, partner 0.2 µg/mL | 0.0687
S. pneumoniae D39V [3], first compound 0.05 µg/mL, partner 0.4 µg/mL | 0.0516
S. pneumoniae D39V [3], first compound 0.05 µg/mL, partner 0.8 µg/mL | 0.0164
S. pneumoniae D39V [3], first compound 0.06 µg/mL, partner 0.215 µg/mL | 0.632
S. pneumoniae D39V [3], first compound 0.06 µg/mL, partner 0.43 µg/mL | 0.524
S. pneumoniae D39V [3], first compound 0.06 µg/mL, partner 0.86 µg/mL | 0.152

Details | Bliss interaction score
B. subtilis 168 [4] | 0.193
S. aureus DSM 20231 [5] | -0.0523
S. aureus Newman | -0.22
S. pneumoniae D39V [6] | 0.0748

O=C(O[C@@H]1Cc2c(O)cc(O)cc2O[C@@H]1c1cc(O)c(O)c(O)c1)c1cc(O)c(O)c(O)c1 [EGCG] + CC(=O)NC[C@H]1CN(c2ccc(N3CCOCC3)c(F)c2)C(=O)O1 [Linezolid]
fitness, one replicate
Details | first compound 6.25 µg/mL | first compound 12.5 µg/mL | first compound 25 µg/mL | first compound 50 µg/mL
B. subtilis 168 [1], partner 0.0625 µg/mL | 0.854 | 0.61 | 0.286 | –
S. aureus DSM 20231 [2], partner 1 µg/mL | – | 0.0545 | 0.076 | 0.0554

fitness
Details | first compound 6.25 µg/mL | first compound 12.5 µg/mL | first compound 25 µg/mL | first compound 50 µg/mL
B. subtilis 168 [1], partner 0.125 µg/mL | 0.582 | 0.482 | – | –
B. subtilis 168 [1], partner 0.25 µg/mL | – | – | 0.0697 | –
B. subtilis 168 [1], partner 0.5 µg/mL | 0.0716 | 0.0599 | 0.0583 | –
S. aureus DSM 20231 [2], partner 0.125 µg/mL | – | 0.745 | 0.816 | 0.708
S. aureus DSM 20231 [2], partner 0.25 µg/mL | – | 0.551 | 0.559 | 0.563
S. aureus DSM 20231 [2], partner 0.5 µg/mL | – | 0.223 | 0.25 | 0.159
S. pneumoniae D39V [3], partner 0.105 µg/mL | – | 0.735 | 0.634 | 0.752
S. pneumoniae D39V [3], partner 0.2 µg/mL | – | 0.533 | 0.517 | 0.411
S. pneumoniae D39V [3], partner 0.21 µg/mL | – | 0.604 | 0.688 | 0.64
S. pneumoniae D39V [3], partner 0.4 µg/mL | – | 0.283 | 0.249 | 0.218
S. pneumoniae D39V [3], partner 0.42 µg/mL | – | 0.505 | – | 0.498
S. pneumoniae D39V [3], partner 0.8 µg/mL | – | 0.12 | 0.0783 | 0.133

Details | Bliss interaction score
B. subtilis 168 [4] | 0.0875
S. aureus DSM 20231 [5] | 0.0748
S. aureus Newman | 0.0955
S. pneumoniae D39V [6] | -0.1
